Five compounds from ChEMBL document CHEMBL1817662, “Swerilactones L-O, secoiridoids with C₁₂ and C₁₃ skeletons from Swertia mileensis” (J Nat Prod, 2011) can be followed below.

The structures appear in SMILES notation. Where only a bound is given, the exact number is not on record here.

The nature of series [1]: Cytotoxicity in human HepG2(2.2.15) cells after 72 hrs by MTT assay. The series is classed as cell-based.
Series [2] has as its system Hepatitis B virus. The series can be described thus: Antiviral activity against HBV infected in human HepG2(2.2.15) cells assessed as reduction in HBsAg antigen secretion after 72 hrs by ELISA. The series is classed as functional, organism-based. To be noted: HepG2 2.2.15, 72 h. In general terms: An ELISA detects its analyte on a solid surface through an enzyme-linked reagent.

Series [3] concerns Hepatitis B virus. The series can be described thus: Antiviral activity against HBV infected in human HepG2(2.2.15) cells assessed as reduction in HBeAg antigen secretion after 72 hrs by ELISA. The series is classed as functional, organism-based. To be noted: HepG2 2.2.15, 72 h.
Series [4] in a line: Selectivity index, ratio of CC50 for human HepG2(2.2.15) cells to IC50 for HBeAg antigen secretion in HBV infected in human HepG2(2.2.15) cells. The series is classed as functional.
Series [5] in a line: Selectivity index, ratio of CC50 for human HepG2(2.2.15) cells to IC50 for HBsAg antigen secretion in HBV infected in human HepG2(2.2.15) cells. The class given is functional.

On to `CC(=O)/C=C/c1cccc2c1CCOC2=O` [Swerilactone O], for which the CC50 at 72 h in series [1] is over 1.44 mM. Also, the IC50 in series [2] and in series [3] was over 1.44 mM each time.
As to `Nc1ccn([C@@H]2CS[C@H](CO)O2)c(=O)n1` [LAMIVUDINE], the CC50 at 72 h in series [1] turned out to be 33.2 mM. The “Ratio CC50/IC50” value in series [4] is on record as 1.1.
As to `CC(=O)C[C@H](O)c1cccc2c1CCOC2=O` [Swerilactone N], the CC50 at 72 h in series [1] is over 0.51 mM. The IC50 in series [2] and in series [3] was over 0.51 mM in each case.
Compound `CC(=O)C[C@@H]1O[C@@H](C)C(=O)C2=C1C(=O)OCC2` [Swerilactone L] had a CC50 at 72 h in series [1] of 1.43 mM. Further, the “Ratio CC50/IC50” value is recorded as under 1 in series [5] and 1.62 in series [4]. Also, the IC50 was 1.47 mM in series [2] and 0.88 mM in series [3].
For `CC(=O)c1cc2c(c([C@H](C)O)c1)CCOC2=O` [Swerilactone M] the same measures were 1.84 mM, 1.53, under 1, 1.2 mM and over 2.69 mM.

In general, CC50 refers to the concentration at which the toxic effect on the cells reaches its halfway point. Read a low CC50 as harm at low concentration. As a reminder, the IC50 is the concentration that inhibits the measured activity by half.
